Source: patent US11117869B2, “Compounds, compositions and methods for treatment of myopia” (Aerie Pharmaceuticals, Inc., priority 2019, dated 2021)

Columns and labels:
[1] = Topical eye drop composition (Table 3): intraocular pressure; format: in vivo
[2] = Topical eye drop composition (Table 3): allergic symptoms, dry eye, hyperemia, irritation
myopia = experiment: Topical eye drop composition (Table 3): myopia progression or onset; conditions: drop 2 times per day, human subject

In the case of `CN1C2CCC1CC(NC(=O)[C@H](CN)c1ccc(CO)cc1)C2` (stereo partly drawn) [Compound E20S, (S)-3-amino-2-(4-(hydroxymethyl)phenyl)-N-((1R,3-endo,5S)-8-methyl-8-azabicyclo[3.2.]octan-3-yl)propanamide ditosylate], the intraocular pressure [1] is reported as “substantially decreases” and the allergic symptoms ([2]; in vivo) is reported as “substantially decreases”.

For `CN1C2CCC1CC(OC(=O)C(CO)c1cccc(Cl)c1)C2` (centres unmarked) [Compound E21], the intraocular pressure [1] was “substantially decreases”.

For `CN1C2CCC1CC(OC(=O)C(C)(CO)c1ccccc1)C2` (centres unmarked) [Compound E22R], the “hyperemia, redness and ocular irritation” value ([2]; drop as needed) was “substantially decreases”.

For `CN1C2CCC1CC(NC(=O)C(CO)c1ccccc1)C2` (centres unmarked) [Compound E23], the “rate of myopia progression” value (myopia) was “substantially decreases”.
